According to patent US20170042883A1, “Methods for Detecting and Treating Rhinovirus Infection” (The Procter & Gamble Company, priority 2011, published 2017):

The molecules below were run on rhinovirus infection-induced inflammatory markers (IL-6, IP-10, and RANTES) in BEAS-2B (assay: rhinovirus infection-induced inflammatory markers in RV-16 infected BEAS-2B cells). Conditions: ibuprofen (20 µM) added with a subset of compounds at time of infection; two days post-infection; in a majority of instances.
Type: cell-based, human
Procedure: The effect of various identified compounds on rhinovirus infection-induced inflammatory markers (IL-6, IP-10, and RANTES) in the human bronchial epithelia cell line, BEAS-2B, was evaluated. Kaempferol, luteolin, quercetin, scutellarein, all-transretinoic acid, 3-hydroxyflavone, fustin, 3-methylquercetin, fisetin, apigenin, oxymetazoline HCl, chrysin, naringenin, pyrrolidinedithiocarbamate ammonium, 7-hydroxyflavone, myricetin, diosmetin, 4′,7-dihydroxyflavone, or eriodictyol was added to cell culture media at various doses at the time of RV-16 infection of BEAS-2B cells. IL-6, IP-10 and RANTES protein levels were measured three days post-infection. Cytotoxicity of the compounds was determined by the uptake of vital dye Rhinovirus infected BEAS-2B cells not exposed to the compounds served as a positive control, achieving maximum cytokine production. BEAS-2B cells not exposed to rhinovirus or the compounds served as a negative control. […] The study was repeated for a subset of compounds, and ibuprofen (20 µM) was added to the cell media with the compounds at the time of infection. IL-6, IP-10 and RANTES protein levels were measured two days post-infection.

Molecule	levels of biomarkers associated with rhinovirus infection (IL-6, IP-10 and RANTES protein levels)
CC(C)Cc1ccc(C(C)C(=O)O)cc1 (centres unmarked) [ibuprofen]	further reduced

Same assay, conditions: result in words

Molecule	anti-inflammatory effects in the rhinovirus infection mediated inflammation model
O=c1c(-c2ccc(O)cc2)coc2cc(O)ccc12 [daidzein]	anti-inflammatory effects
O=C1c2ccc(O)cc2O[C@H](c2ccc(O)c(O)c2)[C@H]1O [fustin]	anti-inflammatory effects
O=c1c(O)c(-c2ccccc2)oc2ccccc12 [3-hydroxyflavone]	anti-inflammatory effects
3-methylquercetin	anti-inflammatory effects
O=c1cc(-c2ccc(O)cc2)oc2cc(O)ccc12 [4′,7-dihydroxyflavone]	anti-inflammatory effects
C[C@@H]1O[C@@H](OC[C@H]2O[C@@H](Oc3c(-c4ccc(OCCO)c(OCCO)c4)oc4cc(OCCO)cc(O)c4c3=O)[C@H](O)[C@@H](O)[C@@H]2O)[C@H](O)[C@H](O)[C@H]1O [troxerutin]	anti-inflammatory effects
O=c1cc(-c2ccccc2)oc2cc(O)ccc12 [7-hydroxyflavone]	anti-inflammatory effects
COc1ccc(-c2cc(=O)c3c(O)cc(O)cc3o2)cc1O [diosmetin]	anti-inflammatory effects
O=c1cc(-c2ccc(O)cc2)oc2cc(O)cc(O)c12 [Apigenin]	anti-inflammatory effects
O=c1cc(-c2ccc(O)c(O)c2)oc2cc(O)cc(O)c12 [luteolin]	anti-inflammatory effects
O=C1C[C@@H](c2ccc(O)c(O)c2)Oc2cc(O)cc(O)c21 [eriodictyol]	anti-inflammatory effects
Cc1cc(C(C)(C)C)c(O)c(C)c1CC1=NCCN1 [oxymetazoline]	anti-inflammatory effects
O=c1c(O)c(-c2ccc(O)c(O)c2)oc2cc(O)ccc12 [fisetin]	anti-inflammatory effects
O=c1c(O)c(-c2cc(O)c(O)c(O)c2)oc2cc(O)cc(O)c12 [Myricetin]	anti-inflammatory effects
O=c1c(O)c(-c2ccc(O)c(O)c2)oc2cc(O)cc(O)c12 [quercetin]	anti-inflammatory effects
O=c1c(-c2ccc(O)cc2)coc2cc(O)cc(O)c12 [genistein]	anti-inflammatory effects
O=c1c(O)c(-c2ccc(O)cc2)oc2cc(O)cc(O)c12 [kaempferol]	anti-inflammatory effects
CC1=C(/C=C/C(C)=C/C=C/C(C)=C/C(=O)O)C(C)(C)CCC1 [all-transretinoic acid]	anti-inflammatory effects
O=C1C[C@@H](c2ccc(O)cc2)Oc2cc(O)cc(O)c21 [naringenin]	anti-inflammatory effects
